From patent publication US5604234A, “Substituted thiol macrolactam immunomodulators” (Abbott Laboratories, priority 1995, dated 1997)

System: human mixed lymphocyte reaction (MLR)
Assay: human mixed lymphocyte reaction (MLR), serum free variation
Format: cell-based
Conditions: Homo sapiens, Lymphocyte, serum-free medium AIM V, Table 3
Experimental: In vitro Assay of Biological Activity (Serum Free MLR)
The in viitro immunosuppressant activity of the compounds of the present invention can also be determined using a variation of the human mixed lymphocyte reaction (MLR) assay described by Kino, T. et al. in Transplantation Proceedings, XIX(5):36-39, Suppl. 6 (1987). In this assay, the cell culture was performed in a serum-free medium, AIM V (GibcoBRL Life Technologies, Grand Island, N.Y.), instead of the usual RPMI 1640 plus 10% heat-inactivated fetal bovine serum medium. The final cell concentrations of the responder and stimulator peripheral blood mononuclear cells were, respectively, 5×10^5/mL and 2×10^6/mL of cells pooled from four donors.

SMILES | IC50
CCC(=O)S[C@H]1CC[C@@H](/C=C(\C)[C@H]2OC(=O)[C@@H]3CCCCN3C(=O)C(=O)[C@]3(O)O[C@H]([C@@H](OC)C[C@@H](C)C/C(C)=C/[C@@H](CC)C(=O)C[C@H](O)[C@H]2C)[C@@H](OC)C[C@H]3C)C[C@H]1OC [Example 88] | 0.61 nM
CCNC(=O)S[C@H]1CC[C@@H](/C=C(\C)[C@H]2OC(=O)[C@@H]3CCCCN3C(=O)C(=O)[C@]3(O)O[C@H]([C@@H](OC)C[C@@H](C)C/C(C)=C/[C@@H](CC)C(=O)C[C@H](O)[C@H]2C)[C@@H](OC)C[C@H]3C)C[C@H]1OC [Example 91] | 0.09 nM
CCCNC(=O)S[C@H]1CC[C@@H](/C=C(\C)[C@H]2OC(=O)[C@@H]3CCCCN3C(=O)C(=O)[C@]3(O)O[C@H]([C@@H](OC)C[C@@H](C)C/C(C)=C/[C@@H](CC)C(=O)C[C@H](O)[C@H]2C)[C@@H](OC)C[C@H]3C)C[C@H]1OC [Example 92] | 0.26 nM
CC[C@@H]1/C=C(\C)C[C@H](C)C[C@H](OC)[C@H]2O[C@@](O)(C(=O)C(=O)N3CCCC[C@H]3C(=O)O[C@H](/C(C)=C/[C@@H]3CC[C@H](SC(=O)NC(C)C)[C@H](OC)C3)[C@H](C)[C@@H](O)CC1=O)[C@H](C)C[C@@H]2OC [Example 93] | 0.3 nM
CC[C@@H]1/C=C(\C)C[C@H](C)C[C@H](OC)[C@H]2O[C@@](O)(C(=O)C(=O)N3CCCC[C@H]3C(=O)O[C@H](/C(C)=C/[C@@H]3CC[C@H](SC(=O)Nc4ccccc4)[C@H](OC)C3)[C@H](C)[C@@H](O)CC1=O)[C@H](C)C[C@@H]2OC [Example 94] | 1.9 nM
CCOC(=O)CNC(=O)S[C@H]1CC[C@@H](/C=C(\C)[C@H]2OC(=O)[C@@H]3CCCCN3C(=O)C(=O)[C@]3(O)O[C@H]([C@@H](OC)C[C@@H](C)C/C(C)=C/[C@@H](CC)C(=O)C[C@H](O)[C@H]2C)[C@@H](OC)C[C@H]3C)C[C@H]1OC [Example 95] | 10.9 nM
CC[C@@H]1/C=C(\C)C[C@H](C)C[C@H](OC)[C@H]2O[C@@](O)(C(=O)C(=O)N3CCCC[C@H]3C(=O)O[C@H](/C(C)=C/[C@@H]3CC[C@H](SC(=O)N(C)C)[C@H](OC)C3)[C@H](C)[C@@H](O)CC1=O)[C@H](C)C[C@@H]2OC [Example 96] | 0.1 nM
CC[C@@H]1/C=C(\C)C[C@H](C)C[C@H](OC)[C@H]2O[C@@](O)(C(=O)C(=O)N3CCCC[C@H]3C(=O)O[C@H](/C(C)=C/[C@@H]3CC[C@H](SC(=O)N(CC)CC)[C@H](OC)C3)[C@H](C)[C@@H](O)CC1=O)[C@H](C)C[C@@H]2OC [Example 97] | 0.5 nM
CC[C@@H]1/C=C(\C)C[C@H](C)C[C@H](OC)[C@H]2O[C@@](O)(C(=O)C(=O)N3CCCC[C@H]3C(=O)O[C@H](/C(C)=C/[C@@H]3CC[C@H](SC(=O)N4CCOCC4)[C@H](OC)C3)[C@H](C)[C@@H](O)CC1=O)[C@H](C)C[C@@H]2OC [Example 98] | 0.2 nM
CC[C@@H]1/C=C(\C)C[C@H](C)C[C@H](OC)[C@H]2O[C@@](O)(C(=O)C(=O)N3CCCC[C@H]3C(=O)O[C@H](/C(C)=C/[C@@H]3CC[C@H](SC(=O)NCC(=O)OCc4ccc(OC)cc4)[C@H](OC)C3)[C@H](C)[C@@H](O)CC1=O)[C@H](C)C[C@@H]2OC [Example 99] | 8.7 nM
CC[C@@H]1/C=C(\C)C[C@H](C)C[C@H](OC)[C@H]2O[C@@](O)(C(=O)C(=O)N3CCCC[C@H]3C(=O)O[C@H](/C(C)=C/[C@@H]3CC[C@H](SC(=O)NCC(=O)N4CCOCC4)[C@H](OC)C3)[C@H](C)[C@@H](O)CC1=O)[C@H](C)C[C@@H]2OC [Example 101] | 1.1 nM
CC[C@@H]1/C=C(\C)C[C@H](C)C[C@H](OC)[C@H]2O[C@@](O)(C(=O)C(=O)N3CCCC[C@H]3C(=O)O[C@H](/C(C)=C/[C@@H]3CC[C@H](SC(=O)NCC(=O)N4CCCCC4)[C@H](OC)C3)[C@H](C)[C@@H](O)CC1=O)[C@H](C)C[C@@H]2OC [Example 102] | 2 nM
CCOC(CNC(=O)S[C@H]1CC[C@@H](/C=C(\C)[C@H]2OC(=O)[C@@H]3CCCCN3C(=O)C(=O)[C@]3(O)O[C@H]([C@@H](OC)C[C@@H](C)C/C(C)=C/[C@@H](CC)C(=O)C[C@H](O)[C@H]2C)[C@@H](OC)C[C@H]3C)C[C@H]1OC)OCC [Example 104] | 2.5 nM
CC[C@@H]1/C=C(\C)C[C@H](C)C[C@H](OC)[C@H]2O[C@@](O)(C(=O)C(=O)N3CCCC[C@H]3C(=O)O[C@H](/C(C)=C/[C@@H]3CC[C@H](SC(=O)C(=O)OC)[C@H](OC)C3)[C@H](C)[C@@H](O)CC1=O)[C@H](C)C[C@@H]2OC [Example 111] | 4.1 nM
CC[C@@H]1/C=C(\C)C[C@H](C)C[C@H](OC)[C@H]2O[C@@](O)(C(=O)C(=O)N3CCCC[C@H]3C(=O)O[C@H](/C(C)=C/[C@@H]3CC[C@H](SC(=O)c4ccccc4OC(C)=O)[C@H](OC)C3)[C@H](C)[C@@H](O)CC1=O)[C@H](C)C[C@@H]2OC [Example 112] | 0.49 nM
CC[C@@H]1/C=C(\C)C[C@H](C)C[C@H](OC)[C@H]2O[C@@](O)(C(=O)C(=O)N3CCCC[C@H]3C(=O)O[C@H](/C(C)=C/[C@@H]3CC[C@H](SC(=O)c4cccnc4)[C@H](OC)C3)[C@H](C)[C@@H](O)CC1=O)[C@H](C)C[C@@H]2OC [Example 113] | 0.15 nM
CC[C@@H]1/C=C(\C)C[C@H](C)C[C@H](OC)[C@H]2O[C@@](O)(C(=O)C(=O)N3CCCC[C@H]3C(=O)O[C@H](/C(C)=C/[C@@H]3CC[C@H](SC(=O)c4ccncc4)[C@H](OC)C3)[C@H](C)[C@@H](O)CC1=O)[C@H](C)C[C@@H]2OC [Example 114] | 0.14 nM
CC[C@@H]1/C=C(\C)C[C@H](C)C[C@H](OC)[C@H]2O[C@@](O)(C(=O)C(=O)N3CCCC[C@H]3C(=O)O[C@H](/C(C)=C/[C@@H]3CC[C@H](SC(=O)CNC(C)=O)[C@H](OC)C3)[C@H](C)[C@@H](O)CC1=O)[C@H](C)C[C@@H]2OC [Example 115] | 0.02 nM
CC[C@@H]1/C=C(\C)C[C@H](C)C[C@H](OC)[C@H]2O[C@@](O)(C(=O)C(=O)N3CCCC[C@H]3C(=O)O[C@H](/C(C)=C/[C@@H]3CC[C@H](SC(=O)CCNC(C)=O)[C@H](OC)C3)[C@H](C)[C@@H](O)CC1=O)[C@H](C)C[C@@H]2OC [Example 116] | 3.1 nM
CC[C@@H]1/C=C(\C)C[C@H](C)C[C@H](OC)[C@H]2O[C@@](O)(C(=O)C(=O)N3CCCC[C@H]3C(=O)O[C@H](/C(C)=C/[C@@H]3CC[C@H](SC(=O)c4ccccc4NC(C)=O)[C@H](OC)C3)[C@H](C)[C@@H](O)CC1=O)[C@H](C)C[C@@H]2OC [Example 118] | 2.5 nM
CC[C@@H]1/C=C(\C)C[C@H](C)C[C@H](OC)[C@H]2O[C@@](O)(C(=O)C(=O)N3CCCC[C@H]3C(=O)O[C@H](/C(C)=C/[C@@H]3CC[C@H](SC(=O)c4ccccc4C#N)[C@H](OC)C3)[C@H](C)[C@@H](O)CC1=O)[C@H](C)C[C@@H]2OC [Example 119] | 3 nM
CC[C@@H]1/C=C(\C)C[C@H](C)C[C@H](OC)[C@H]2O[C@@](O)(C(=O)C(=O)N3CCCC[C@H]3C(=O)O[C@H](/C(C)=C/[C@@H]3CC[C@H](SC(=O)c4ccccn4)[C@H](OC)C3)[C@H](C)[C@@H](O)CC1=O)[C@H](C)C[C@@H]2OC [Example 120] | 1.2 nM
CC[C@@H]1/C=C(\C)C[C@H](C)C[C@H](OC)[C@H]2O[C@@](O)(C(=O)C(=O)N3CCCC[C@H]3C(=O)O[C@H](/C(C)=C/[C@@H]3CC[C@H](SC(=O)CNC(N)=O)[C@H](OC)C3)[C@H](C)[C@@H](O)CC1=O)[C@H](C)C[C@@H]2OC [Example 121] | 2.6 nM
CC[C@@H]1/C=C(\C)C[C@H](C)C[C@H](OC)[C@H]2O[C@@](O)(C(=O)C(=O)N3CCCC[C@H]3C(=O)O[C@H](/C(C)=C/[C@@H]3CC[C@H](SC(=O)[C@@H](NC(C)=O)[C@@H](C)O)[C@H](OC)C3)[C@H](C)[C@@H](O)CC1=O)[C@H](C)C[C@@H]2OC [Example 122] | 1.5 nM
CC[C@@H]1/C=C(\C)C[C@H](C)C[C@H](OC)[C@H]2O[C@@](O)(C(=O)C(=O)N3CCCC[C@H]3C(=O)O[C@H](/C(C)=C/[C@@H]3CC[C@H](SC(=O)[C@H](C)O)[C@H](OC)C3)[C@H](C)[C@@H](O)CC1=O)[C@H](C)C[C@@H]2OC [Example 123] | 2.8 nM
CC[C@@H]1/C=C(\C)C[C@H](C)C[C@H](OC)[C@H]2O[C@@](O)(C(=O)C(=O)N3CCCC[C@H]3C(=O)O[C@H](/C(C)=C/[C@@H]3CC[C@H](SC(=O)[C@@H](C)O)[C@H](OC)C3)[C@H](C)[C@@H](O)CC1=O)[C@H](C)C[C@@H]2OC [Example 124] | 2 nM
CC[C@@H]1/C=C(\C)C[C@H](C)C[C@H](OC)[C@H]2O[C@@](O)(C(=O)C(=O)N3CCCC[C@H]3C(=O)O[C@H](/C(C)=C/[C@@H]3CC[C@H](SC(=O)CO)[C@H](OC)C3)[C@H](C)[C@@H](O)CC1=O)[C@H](C)C[C@@H]2OC [Example 125] | 3.5 nM

Same assay, conditions: Lymphocyte, serum-free medium AIM V, Table 3

SMILES | IC50
CC[C@@H]1/C=C(\C)C[C@H](C)C[C@H](OC)[C@H]2O[C@@](O)(C(=O)C(=O)N3CCCC[C@H]3C(=O)O[C@H](/C(C)=C/[C@@H]3CC[C@H](SC(=O)NCC(=O)OCC[Si](C)(C)C)[C@H](OC)C3)[C@H](C)[C@@H](O)CC1=O)[C@H](C)C[C@@H]2OC [Example 100] | 5.8 nM

System: human mixed lymphocyte reaction (MLR)
Assay: human mixed lymphocyte reaction (MLR) assay, immunosuppressant activity
Format: cell-based
Conditions: Homo sapiens, Lymphocyte, Table 2
Experimental: The immunosuppressant activity of the compounds of the present invention was determined using the human mixed lymphocyte reaction (MLR) assay described by Kino, T. et al. in Transplantation Proceedings, XIX(5):36-39,Suppl. 6 (1987).

SMILES | IC50
CC[C@@H]1/C=C(\C)C[C@H](C)C[C@H](OC)[C@H]2O[C@@](O)(C(=O)C(=O)N3CCCC[C@H]3C(=O)O[C@H](/C(C)=C/[C@@H]3CC[C@H]([S+](C)[O-])[C@H](OC)C3)[C@H](C)[C@@H](O)CC1=O)[C@H](C)C[C@@H]2OC (single isomer, unassigned) [Example 127] | 12.5 nM
CC[C@@H]1/C=C(\C)C[C@H](C)C[C@H](OC)[C@H]2O[C@@](O)(C(=O)C(=O)N3CCCC[C@H]3C(=O)O[C@H](/C(C)=C/[C@@H]3CC[C@H]([S+]([O-])c4ccccc4)[C@H](OC)C3)[C@H](C)[C@@H](O)CC1=O)[C@H](C)C[C@@H]2OC (single isomer, unassigned) [Example 133A] | 6.2 nM
